Five compounds from PubChem BioAssay AID1963426 (Molecular Pharmacology Branch, DTP, NCI, 2024) can be followed below.

SMILES strings stand for the structures. pIC50: −log10 of the molar value. “And” between values parts separate entries of the source, which are not always exact repeats. Identical values can stand only once. Some results are limits rather than exact numbers.

The subject of the test is 186277-243-T-J2-PDC complex spheroid growth, % test/control. As to the kind of experiment: Anticancer human tumor 186277-243-T-J2-PDC patient-derived colon adenocarcinoma cell line growth inhibition [Asc]. The note with it: for viability, T/C: stronger effect = lower value. Summed up:
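Spheroid model: tumor line + HUVEC + hMSC. Single agents and combinations; top conc. at/near clinical Cmax (10 microM if undetermined), half-log dilutions. DMSO stocks at 800-fold test concentration.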

Where [1] appears, read: curve of first compound, second compound 0.1 µM.
Setting [2] is: curve of first compound, second compound 0.316 µM.
The mark [3] stands for this setting: curve of first compound, second compound 1 µM.
Setting [4] is: curve of first compound, second compound 3.16 µM.
[5] abbreviates: curve of first compound, second compound 10 µM.
Where [6] appears, read: second compound 0.1 µM, first compound 0.00316 µM.
The mark [7] stands for this setting: second compound 0.1 µM, first compound 0.01 µM.
The mark [8] stands for this setting: second compound 0.1 µM, first compound 0.0316 µM.
The mark [9] stands for this setting: second compound 0.1 µM, first compound 0.1 µM.
The mark [10] stands for this setting: second compound 0.1 µM, first compound 0.316 µM.
Where [11] appears, read: second compound 0.1 µM, first compound 1 µM.
The mark [12] stands for this setting: second compound 0.316 µM, first compound 0.00316 µM.
Where [13] appears, read: second compound 0.316 µM, first compound 0.01 µM.
Setting [14] is: second compound 0.316 µM, first compound 0.0316 µM.
Setting [15] is: second compound 0.316 µM, first compound 0.1 µM.
Setting [16] is: second compound 0.316 µM, first compound 0.316 µM.
Where [17] appears, read: second compound 0.316 µM, first compound 1 µM.
The mark [18] stands for this setting: second compound 1 µM, first compound 0.00316 µM.
The mark [19] stands for this setting: second compound 1 µM, first compound 0.01 µM.
Setting [20] is: second compound 1 µM, first compound 0.0316 µM.
[21] abbreviates: second compound 1 µM, first compound 0.1 µM.
[22] abbreviates: second compound 1 µM, first compound 0.316 µM.
[23] abbreviates: second compound 1 µM, first compound 1 µM.
Where [24] appears, read: second compound 3.16 µM, first compound 0.00316 µM.
Setting [25] is: second compound 3.16 µM, first compound 0.01 µM.
[26] abbreviates: second compound 3.16 µM, first compound 0.0316 µM.
Where [27] appears, read: second compound 3.16 µM, first compound 0.1 µM.
Where [28] appears, read: second compound 3.16 µM, first compound 0.316 µM.
Where [29] appears, read: second compound 3.16 µM, first compound 1 µM.
The mark [30] stands for this setting: second compound 10 µM, first compound 0.00316 µM.
Setting [31] is: second compound 10 µM, first compound 0.01 µM.
[32] abbreviates: second compound 10 µM, first compound 0.0316 µM.
The mark [33] stands for this setting: second compound 10 µM, first compound 0.1 µM.
Where [34] appears, read: second compound 10 µM, first compound 0.316 µM.
Setting [35] is: second compound 10 µM, first compound 1 µM.
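Note: spheroids exposed to agents for 7 days.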
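Throughout, for viability, T/C: 100% = DMSO vehicle control wells.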

In the case of `CNC(C)C(=O)NC1CN(S(=O)(=O)c2cccc(S(=O)(=O)N3CCC4CCC(C(=O)NC(c5ccccc5)c5ccccc5)N4C(=O)C(NC(=O)C(C)NC)C3)c2)CCC2CCC(C(=O)NC(c3ccccc3)c3ccccc3)N2C1=O` (centres undefined) + Cc1c(S(C)(=O)=O)c(-c2cc(F)cc(N3CCN(c4ccc(NS(=O)(=O)c5ccc(NC(CCN6CCC(C(=O)OCCCP(=O)(O)O)CC6)CSc6ccccc6)c(S(=O)(=O)C(F)(F)F)c5)cc4)CC3)c2)c(-c2ccc(Cl)cc2)n1C(C)C, the negative logarithm of the IC50 (pIC50) by setting is: under setting [1], less than 6.00; under setting [2], less than 6.00; under setting [3], less than 6.00; under setting [4], less than 6.00; under setting [5], less than 6.00. For the same compound, the viability, T/C runs as follows: under setting [6], 99.7%; under setting [7], 108%; under setting [8], 111%; under setting [9], 106%; under setting [10], 101%; under setting [11], 110%. The viability, T/C under setting [12] is 102%; the viability, T/C under setting [13] was 104%; the viability, T/C under setting [14] is 102%; the viability, T/C under setting [15] was 105%; the viability, T/C under setting [16] is 108%; the viability, T/C under setting [17] was 110%. The viability, T/C was 123% under setting [18]; 114% under setting [19]; 101% under setting [20]; 110% under setting [21]; 110% under setting [22]; 99.5% under setting [23]. Also, the viability, T/C was 105% under setting [24]; 109% under setting [25]; 93.6% under setting [26]; 109% under setting [27]; 110% under setting [28]; 104% under setting [29]. Besides, the viability, T/C is 93.6% under setting [30]; 103% under setting [31]; 102% under setting [32]; 109% under setting [33]; 101% under setting [34]; 107% under setting [35].

`C=C(F)C(=O)N1CCN(c2nc(OCC3CCCN3C)nc3c2CCN(c2cccc4cccc(Cl)c24)C3)CC1CC#N` (centres undefined) + Cc1c(S(C)(=O)=O)c(-c2cc(F)cc(N3CCN(c4ccc(NS(=O)(=O)c5ccc(NC(CCN6CCC(C(=O)OCCCP(=O)(O)O)CC6)CSc6ccccc6)c(S(=O)(=O)C(F)(F)F)c5)cc4)CC3)c2)c(-c2ccc(Cl)cc2)n1C(C)C: the pIC50 runs as follows: under setting [1], 5.26; under setting [2], 5.36; under setting [3], 5.59; under setting [4], 5.66; under setting [5], 5.63. In addition, the viability, T/C is 109% under setting [8]; 111% under setting [9]; 110% under setting [10]; 110% under setting [11]; 97.2% (second compound 0.1 µM, first compound 3.16 µM); 0.54% (second compound 0.1 µM, first compound 10 µM). In addition, the viability, T/C under setting [14] was 106%; the viability, T/C under setting [15] is 109%; the viability, T/C under setting [16] is 108%; the viability, T/C under setting [17] is 111%; the viability, T/C (second compound 0.316 µM, first compound 3.16 µM) is 70%; the viability, T/C (second compound 0.316 µM, first compound 10 µM) was 0.32%. In addition, the viability, T/C under setting [20] is 115%; the viability, T/C under setting [21] was 119%; the viability, T/C under setting [22] was 107%; the viability, T/C under setting [23] was 124%; the viability, T/C (second compound 1 µM, first compound 3.16 µM) is 36.1%; the viability, T/C (second compound 1 µM, first compound 10 µM) was 0.51%. Further, the viability, T/C under setting [26] is 105%; the viability, T/C under setting [27] is 108%; the viability, T/C under setting [28] is 112%; the viability, T/C under setting [29] was 104%; the viability, T/C (second compound 3.16 µM, first compound 3.16 µM) is 24.2%; the viability, T/C (second compound 3.16 µM, first compound 10 µM) was 0.16%. In addition, the viability, T/C is, setting by setting: under setting [32], 120%; under setting [33], 106%; under setting [34], 116%; under setting [35], 107%; (second compound 10 µM, first compound 3.16 µM) 31.2%; (second compound 10 µM, first compound 10 µM) 0.25%.

Regarding `Cn1ncnc1[C@H]1c2n[nH]c(=O)c3cc(F)cc(c23)N[C@@H]1c1ccc(F)cc1` + Cc1c(S(C)(=O)=O)c(-c2cc(F)cc(N3CCN(c4ccc(NS(=O)(=O)c5ccc(NC(CCN6CCC(C(=O)OCCCP(=O)(O)O)CC6)CSc6ccccc6)c(S(=O)(=O)C(F)(F)F)c5)cc4)CC3)c2)c(-c2ccc(Cl)cc2)n1C(C)C, the pIC50 is less than 7.00 under setting [1]; less than 7.00 under setting [2]; less than 7.00 under setting [3]; less than 7.00 under setting [4]; 7.12 under setting [5]. Further, the viability, T/C by setting is: (second compound 0.1 µM, first compound 0.000316 µM) 98.4%; (second compound 0.1 µM, first compound 0.001 µM) 85.5%; under setting [6], 101%; under setting [7], 101%; under setting [8], 108%; under setting [9], 99.1%. For the same compound, the viability, T/C runs as follows: (second compound 0.316 µM, first compound 0.000316 µM) 111%; (second compound 0.316 µM, first compound 0.001 µM) 95.5%; under setting [12], 114%; under setting [13], 111%; under setting [14], 98.3%; under setting [15], 86.8%. Moreover, the viability, T/C was 100% (second compound 1 µM, first compound 0.000316 µM); 103% (second compound 1 µM, first compound 0.001 µM); 103% under setting [18]; 91.5% under setting [19]; 70% under setting [20]; 63.8% under setting [21]. For the same compound, the viability, T/C (second compound 3.16 µM, first compound 0.000316 µM) is 106%; the viability, T/C (second compound 3.16 µM, first compound 0.001 µM) is 99%; the viability, T/C under setting [24] was 113%; the viability, T/C under setting [25] is 97.9%; the viability, T/C under setting [26] was 66%; the viability, T/C under setting [27] was 56.1%. Further, the viability, T/C (second compound 10 µM, first compound 0.000316 µM) is 95.4%; the viability, T/C (second compound 10 µM, first compound 0.001 µM) is 95.9%; the viability, T/C under setting [30] is 116%; the viability, T/C under setting [31] is 96.1%; the viability, T/C under setting [32] was 70.5%; the viability, T/C under setting [33] was 43.2%.

Take `O=C(c1ccc(F)c(F)c1Nc1ccc(I)cc1F)N1CC(O)([C@@H]2CCCCN2)C1`: the viability, T/C (compound 0.00316 µM) was 87.9% and 90.5% and 94.8%; the viability, T/C (compound 0.01 µM) was 88.2% and 90.8% and 78.7%; the viability, T/C (compound 0.0316 µM) is 97.7% and 88.7% and 90.1%; the viability, T/C (compound 0.1 µM) was 59.7% and 58.8% and 96.4%; the viability, T/C (compound 0.316 µM) is 14.8% and 15.4% and 23.9%; the viability, T/C (compound 1 µM) was 9.12% and 8.82% and 13.1%. In addition, the pIC50 (curve of compound) was 6.90 and 6.70.

Consider `C#Cc1c(F)ccc2cc(O)cc(-c3ncc4c(N5CC6CCC(C5)N6)nc(OCC56CCCN5CC(F)C6)nc4c3F)c12` (centres undefined), for which the viability, T/C was 103% and 107% and 88.1% (compound 0.0316 µM); 105% and 88.2% and 66.5% (compound 0.1 µM); 76.8% and 48.2% and 40.8% (compound 0.316 µM); 33.4% and 21.4% and 16.8% (compound 1 µM); 19.4% and 12.1% and 11.2% (compound 3.16 µM); 12.5% and 8.62% and 7.15% (compound 10 µM). For the same compound, where the note is “curve of compound”, the pIC50 is 6.19 and 6.51 and 6.69.

As a reminder, the pIC50 is the IC50 on a negative log10 scale, so that one unit is a factor of ten. By viability, T/C is commonly meant the result in the treated group divided by that in the control group, in per cent.
